Patent US20190016689A1, “NOVEL FLUORINATED QUINAZOLINE DERIVATIVES AS EGFR INHIBITORS” (TRILLIUM THERAPEUTICS INC., priority 2016, published 2019)
Like-named read-outs stand apart in the source and are kept apart here.

Assays:
[1] = Plasma protein binding (equilibrium dialysis); type: in vitro ADME; settings: pH 7.4, dialysis 6 hours
Procedure: Prepare a basic solution by dissolving 14.2 g/L Na2HPO4 and 8.77 g/L NaCl in deionized water. Store at 4° C. for up to 7 days. Prepare an acidic solution by dissolving 15.6 g/L NaH2PO4.2H2O and 8.77 g/L NaCl in deionized water. Store at 4° C. for up to 7 days. Titrate the basic solution with the acidic solution to pH 7.4. Store at 4° C. for up to 7 days. Check pH on the day of experiment and adjust if outside specification of 7.4±0.1.
b—Preparation of Dialysis Membranes Soak the dialysis membranes in ultrapure water for 60 minutes to separate strips, then in 20% ethanol for 20 minutes, finally in dialysis buffer for 20 minutes. c—Preparation of Plasma
Thaw the frozen plasma immediately in a 37° C. water bath.
Centrifuge plasma at 3,220 g for 10 minutes at room temperature to remove clots and collect supernatant into a fresh tube. Check and record the pH of the plasma.
Note: a) Only use plasma that has been thawed no more than twice since arrival. b) Only use plasma within the range of pH 7 to pH 8.
The working solutions of test compound and control compound ketoconazole are prepared in 50% water/50% acetonitrile and DMSO at the concentration of 200 μM, respectively. And then remove 3 μL of working solution to mix with 597 μL of human, rat and mouse plasma to achieve final concentration of 1 μM (0.5% DMSO). Vortex thoroughly.
Assemble the dialysis set up following the manufacturer's instructions. Load cells with 120 μL of plasma sample and dialyzed against equal volume of dialysis buffer (PBS). The assay is performed in duplicate. Seal the dialysis plate and place the plate in an incubator at 37° C. with 5% CO2 at approximately 100 rpm for 6 hours. At the end of dialysis, remove seal and pipette 50 μL each of post-dialysis samples from both buffer and plasma chambers into separate tubes in plate.
Add 50 μL of blank plasma to the buffer samples, and an equal volume of PBS to the collected plasma samples. Add 300 μL of room temperature quench solution (acetonitrile containing internal standards (IS, 200 nM Labetalol, 100 nM Alprazolam and 2 μM Ketoprofen)) to precipitate protein. Vortex for 5 minutes. Samples in plate are centrifuged at 3,220 g for 30 minutes at room temperature. Transfer 100 μL of the supernatant to a new plate. The supernatant may be diluted with 100 μL or 200 μL water according to the LC/MS signal response and peak shape. Mix well and analyze samples using LC/MS/MS.

[2] = Chemical stability in simulated intestinal fluid; type: physicochemical; settings: 37° C.
Procedure: For SIF: Dissolve 6.8 g of KH2PO4 into about 500 mL ultrapure water and adjust the solution to a pH 6.8 with 0.1 M NaOH. Dissolve 10 g of trypsin into ultrapure water. Then the two solutions are mixed well and diluted with ultrapure water to 1000 mL.
The working solutions of test compound and control compound chlorambucil are prepared in DMSO at the concentration of 500 μM.
Place 2 μL of working solution of each sample in order into their proper 96-well rack. Add 198 μL of pre-incubated PBS pH 7.4 or simulated intestinal fluid into each vial of the cap-less Sample plate to achieve a final concentration of […]. The assay is performed in duplicate. Seal using a molded PTFE/Silicone plug. Then transfer the Sample plate to the Eppendorf Thermomixer Comfort plate shaker and shake at 37° C. at 1100 RPM. Take one of the glass vials at designated time points including 0, 30, 60, 120 and 240 min. For each time point, the initiation of the reaction is staggered so all time points are terminated with 1000 μL of cold quench solution (acetonitrile containing internal standards (IS, 200 nM Labetalol, 100 nM Alprazolam and 2 μM Ketoprofen) at the same time. Vortex for 1 minute. Centrifuge the samples in plate at 3,220 g for 5 minutes at 4° C. Transfer 100 μL of the supernatant to a new plate. The supernatant may be diluted with 100 μL or 200 μL water according to the LC/MS signal response and peak shape. Mix well and analyze samples using LC/MS/MS.

[3] = tested on: CCRF-CEM; assay: NCI screening panel (SRB); type: cell-based; settings: Homo sapiens, CCRF-CEM (Leukemia), 48 h; for CC50: read-out: LC50 (the source's name)
[4] = tested on: HOP-62; assay: NCI screening panel (SRB); type: cell-based; settings: Homo sapiens, HOP-62 (NSCLC), 48 h; for CC50: read-out: LC50 (the source's name)
[5] = tested on: NCI-H460; assay: NCI screening panel (SRB); type: cell-based; settings: Homo sapiens, NCI-H460 (NSCLC), 48 h; for CC50: read-out: LC50 (the source's name)
[6] = tested on: BT-549; assay: NCI screening panel (SRB); type: cell-based; settings: Homo sapiens, BT-549 (Breast), 48 h; for CC50: read-out: LC50 (the source's name)
[7] = Microsomal stability; type: in vitro ADME; settings: Human liver microsomes with NADPH; for Remaining Percentage (%) after 60 min: 1 μM
Procedure: Working stocks were initially diluted to a concentration of 40.0 μM in 0.1 M potassium phosphate buffer before addition to the reaction vials. Pooled mouse (CD-1, male) or human (50 donors) liver microsomes were utilized at a final concentration of 0.5 mg/ml. […] Reactions were carried out at 37° C. in a shaker, and the final concentration of DMSO was kept constant at 0.01%. The final volume for each reaction was 100 μL, which includes the addition of an NADPH-Regeneration solution (NRS) mix. This NRS mix is comprised of glucose 6-phosphate dehydrogenase (0.4 U/mL), NADP+(1.3 mM), MgCl2 (3.3 mM), and glucose 6-phosphate (3.3 mM) in assay mixtures. […] Samples were then centrifuged at 4,000 rpm for 10 minutes to remove debris and precipitated protein. Approximately 150 μL of supernatant was subsequently transferred to a new 96 well microplate for LC/MS analysis.
Narrow-window mass extraction LC/MS analysis was performed for all samples using a Waters Xevo quadrupole time-of-flight (QTof) mass spectrometer and an ACQUITY UPLC system, to determine relative peak areas of parent compound.

[8] = human, read-out: Human Plasma % Bound (converted)
[9] = mouse, read-out: Mouse Plasma % Bound (converted)
[10] = rat, read-out: Rat Plasma % Bound (converted)

Compound | fraction unbound at 6 h, 1 μM [1, 8] | fraction unbound at 6 h, 1 μM [1, 9] | fraction unbound at 6 h, 1 μM [1, 10] | Remaining Percentage (%) in Simulated Intestinal Fluid ([2]; 120 min) [%] | Remaining Percentage (%) in Simulated Intestinal Fluid ([2]; 240 min) [%] | GI50 [3] [µM] | CC50 [3] [µM] | GI50 [4] [µM] | CC50 [4] [µM] | GI50 [5] [µM] | CC50 [5] [µM] | GI50 [6] [µM] | CC50 [6] [µM] | half-life at 1 μM [7] [h] | microsomal CLint at 1 μM [7] [µL/min/mg] | Remaining Percentage (%) after 60 min [7] [%]
CN(C)C/C=C/C(=O)Nc1cc2c(Nc3cccc(Cl)c3F)ncnc2cc1OCCOC(F)F.O=C(O)/C=C\C(=O)O [Example I-5-MA, (E)-N-[4-(3-chloro-2-fluoro-anilino)-7-[2-(difluoromethoxy)ethoxy]quinazolin-6-yl]-4-(dimethylamino)but-2-enamide dimaleic acid salt] | 0.117 | 0.0975 | 0.0771 | 97.51 | 91.51 | – | – | – | – | – | – | – | – | – | – | –
CN(C)C/C=C/C(=O)Nc1cc2c(Nc3ccc(F)c(Cl)c3F)ncnc2cc1OCCOC(F)F.O=C(O)/C=C\C(=O)O.O=C(O)/C=C\C(=O)O [Example I-9-MA, (E)-N-[4-(3-chloro-2,4-difluoro-anilino)-7-[2-(difluoromethoxy)ethoxy]quinazolin-6-yl]-4-(dimethylamino)but-2-enamide di-maleic acid salt] | – | – | – | – | – | 2.47 | > 100 | 1.35 | 41.5 | 2.56 | 62 | 1.69 | 32.2 | 0.986 | 23.4 | 47.73
O=C(/C=C/CN1CCCCC1)Nc1cc2c(Nc3ccc(F)c(Cl)c3F)ncnc2cc1OCCOC(F)F.O=C(O)/C=C\C(=O)O.O=C(O)/C=C\C(=O)O [Example I-10-MA, (E)-N-[4-(3-chloro-2,4-difluoro-anilino)-7-[2-(difluoromethoxy)ethoxy]quinazolin-6-yl]-4-(1-piperidyl)but-2-enamide di-maleic acid salt] | – | – | – | – | – | 2.27 | > 100 | 1.62 | 39.5 | 2.34 | 54.4 | 2.47 | 36.2 | 1.45 | 15.9 | 60.64
CN(C)C/C=C/C(=O)Nc1cc2c(Nc3ccc(F)c(Cl)c3)ncnc2cc1O[C@H]1CCOC1 [Afatinib, reference compound] | 0.08 | 0.0666 | 0.0896 | 104.51 | 104.31 | – | – | – | – | – | – | – | – | – | – | –
